Data on 34 molecules can be found in patent US9210927B2, “Pesticidal compositions and processes related thereto” (Dow AgroSciences LLC, priority 2013, dated 2015).

The test system of one assay is BAW (Spodoptera exigua). Description: Bioassays on Beet Armyworm (BAW), 128-well diet tray assay. In kind it is in vivo. As to conditions: Spodoptera exigua, 168 h, read-out: BAW Rating. How it is done: (§1) Bioassays on Beet Armyworm (“BAW”) and Corn Earworm (“CEW”) and Cabbage Looper (“CL”)
(§2) Certain molecules disclosed in this document were tested against BAW and CEW and CL using procedures described in the following examples. In the reporting of the results, the “BAW & CEW & CL Rating Table” was used (See Table Section).
Bioassays on BAW (Spodoptera exigua)
Bioassays on BAW were conducted using a 128-well diet tray assay. one to five second instar BAW larvae were placed in each well (3 mL) of the diet tray that had been previously filled with 1 mL of artificial diet to which 50 μg/cm^2 of the test compound (dissolved in 50 μL of 90:10 acetone-water mixture) had been applied (to each of eight wells) and then allowed to dry. Trays were covered with a clear self-adhesive cover, and held at 25° C., 14:10 light-dark for five to seven days. Percent mortality was recorded for the larvae in each well; activity in the eight wells was then averaged. The results are indicated in the table entitled “Table 3: Assay Results” (See Table Section).

The next assay relates to CEW (Helicoverpa zea). Description: Bioassays on Corn Earworm (CEW), 128-well diet tray assay. Particulars: Helicoverpa zea, 168 h; percent mortality, second instar larvae, 50 μg/cm^2 on artificial diet, five to seven days, 25° C.; read-out: CEW Rating. In kind it is in vivo. How it is done: as §1, §2
Bioassays on CEW (Helicoverpa zea)
Bioassays on CEW were conducted using a 128-well diet tray assay. one to five second instar CEW larvae were placed in each well (3 mL) of the diet tray that had been previously filled with 1 mL of artificial diet to which 50 μg/cm^2 of the test compound (dissolved in 50 μL of 90:10 acetone-water mixture) had been applied (to each of eight wells) and then allowed to dry. Trays were covered with a clear self-adhesive cover, and held at 25° C., 14:10 light-dark for five to seven days. Percent mortality was recorded for the larvae in each well; activity in the eight wells was then averaged. The results are indicated in the table entitled “Table 3: Assay Results” (See Table Section).

SMILES strings stand for the structures.

Take `Cc1cc(/C=C/C(c2cc(Cl)cc(Cl)c2)C(F)(F)F)ccc1C(=S)NCc1ccc(Cl)nc1` (centres unmarked) [AC115, (E)-N-((6-Chloropyridin-3-yl)methyl)-4-(3-(3,5-dichlorophenyl)-4,4,4-trifluorobut-1-en-1-yl)-2-methylbenzothioamide]: the pest or weed control at 50 µg/cm2 with BAW (Spodoptera exigua) and in the assay on CEW (Helicoverpa zea) was 50 to 100% throughout.
Turning to `O=C(NC1CCc2cc(/C=C/C(c3cc(Cl)c(Cl)c(Cl)c3)C(F)(F)F)ccc21)C1CC1` (centres unmarked) [BC6], the pest or weed control at 50 µg/cm2 with BAW (Spodoptera exigua) and in the assay on CEW (Helicoverpa zea) was 50 to 100% throughout.
In the case of `O=C(NC1CCCc2cc(/C=C/C(c3cc(Cl)c(Cl)c(Cl)c3)C(F)(F)F)ccc21)C1CC1` (centres unmarked) [BC7], the pest or weed control at 50 µg/cm2 with BAW (Spodoptera exigua) and in the assay with CEW (Helicoverpa zea) was 50 to 100% each time.
For the molecule `O=C(Cc1ccc(Cl)nc1)NC1CCc2cc(/C=C/C(c3cc(Cl)c(F)c(Cl)c3)C(F)(F)F)ccc21` (centres unmarked) [BC9], the pest or weed control at 50 µg/cm2 in the assay on BAW (Spodoptera exigua) and with CEW (Helicoverpa zea) was 50 to 100% in each case.
`O=C(CC(F)(F)F)NCC(=O)n1ccc2cc(/C=C/C(c3cc(Cl)c(F)c(Cl)c3)C(F)(F)F)ccc21` (centres unmarked) [BC13, (E)-N-(2-(5-(3-(3,5-Dichloro-4-fluorophenyl)-4,4,4-trifluorobut-1-en-1-yl)-1H-indol-1-yl)-2-oxoethyl)-3,3,3-trifluoropropanamide]: the pest or weed control at 50 µg/cm2 with BAW (Spodoptera exigua) and with CEW (Helicoverpa zea) was 50 to 100% each time.
`O=C(CC(F)(F)F)NCc1ccc(/C=C/C(c2cc(Cl)cc(Cl)c2)C(F)(F)F)cc1` (centres unmarked) [CC3]: the pest or weed control at 50 µg/cm2 with BAW (Spodoptera exigua) and with CEW (Helicoverpa zea) was 50 to 100% each time.
For the molecule `O=C(NCc1ccc(/C=C/C(c2cc(Cl)cc(Cl)c2)C(F)(F)F)cc1Cl)C1CC1` (centres unmarked) [CC8], the pest or weed control at 50 µg/cm2 in the assay with BAW (Spodoptera exigua) and with CEW (Helicoverpa zea) was 50 to 100% throughout.
With `FC(F)(F)C(/C=C/c1ccc(CNC(=S)C2CC2)c(Cl)c1)c1cc(Cl)c(Cl)c(Cl)c1` (centres unmarked) [CC20], the pest or weed control at 50 µg/cm2 in the assay with BAW (Spodoptera exigua) and with CEW (Helicoverpa zea) was 50 to 100% in each case.
For `O=C(NCc1ccc(/C=C/C(c2cc(Cl)cc(Cl)c2)C(F)(F)F)cc1C(F)(F)F)C1CC1` (centres unmarked) [CC21], the pest or weed control at 50 µg/cm2 in the assay on BAW (Spodoptera exigua) and with CEW (Helicoverpa zea) was 50 to 100% throughout.
`O=C(CC(F)(F)F)NCc1ccc(/C=C/C(c2cc(Cl)c(Cl)c(Cl)c2)C(F)(F)F)cc1C(F)(F)F` (centres unmarked) [CC24]: the pest or weed control at 50 µg/cm2 with BAW (Spodoptera exigua) and in the assay with CEW (Helicoverpa zea) was 50 to 100% each time.
For the molecule `O=C(CC(F)(F)F)NCc1ccc(/C=C/C(c2cc(Cl)c(Cl)c(Cl)c2)C(F)(F)F)cc1F` (centres unmarked) [CC27], the pest or weed control at 50 µg/cm2 with BAW (Spodoptera exigua) and in the assay with CEW (Helicoverpa zea) was 50 to 100% each time.
Consider `O=C(NCc1ccc(/C=C/C(c2cc(Cl)c(Cl)c(Cl)c2)C(F)(F)F)cc1F)C1CC1` (centres unmarked) [CC28], for which the pest or weed control at 50 µg/cm2 in the assay on BAW (Spodoptera exigua) and in the assay on CEW (Helicoverpa zea) was 50 to 100% each time.
With `CS(=O)(=O)CCC(=O)NCc1ccc(/C=C/C(c2cc(Cl)c(Cl)c(Cl)c2)C(F)(F)F)cc1Cl` (centres unmarked) [CC30, (E)-N-(2-Chloro-4-(4,4,4-trifluoro-3-(3,4,5-trichlorophenyl)but-1-en-1-yl)benzyl)-3-(methylsulfonyl)propanamide], the pest or weed control at 50 µg/cm2 in the assay with BAW (Spodoptera exigua) and in the assay with CEW (Helicoverpa zea) was 50 to 100% throughout.
For the molecule `CN(C)C(=O)NCc1ccc(/C=C/C(c2cc(Cl)c(Cl)c(Cl)c2)C(F)(F)F)cc1Cl` (centres unmarked) [CC36, (E)-3-(2-Chloro-4-(4,4,4-trifluoro-3-(3,4,5-trichlorophenyl)but-1-en-1-yl)benzyl)-1,1-dimethylurea], the pest or weed control at 50 µg/cm2 in the assay on BAW (Spodoptera exigua) and in the assay on CEW (Helicoverpa zea) was 50 to 100% throughout.
On to `CCNC(=S)NCc1ccc(/C=C/C(c2cc(Cl)c(Cl)c(Cl)c2)C(F)(F)F)cc1Cl` (centres unmarked) [CC37, (E)-1-(2-Chloro-4-(4,4,4-trifluoro-3-(3,4,5-trichlorophenyl)but-1-en-1-yl)benzyl)-3-ethylthiourea], for which the pest or weed control at 50 µg/cm2 in the assay with BAW (Spodoptera exigua) and with CEW (Helicoverpa zea) was 50 to 100% throughout.
Turning to `C=CCNC(=S)NCc1ccc(/C=C/C(c2cc(Cl)c(Cl)c(Cl)c2)C(F)(F)F)cc1Cl` (centres unmarked) [CC38], the pest or weed control at 50 µg/cm2 with BAW (Spodoptera exigua) and in the assay on CEW (Helicoverpa zea) was 50 to 100% in each case.
For `O=C(NCc1ncc(/C=C/C(c2cc(Cl)c(Cl)c(Cl)c2)C(F)(F)F)cc1Cl)C1CC1` (centres unmarked) [CC45], the pest or weed control at 50 µg/cm2 in the assay on BAW (Spodoptera exigua) and with CEW (Helicoverpa zea) was 50 to 100% in each case.
In the case of `O=C(NNc1ccc(/C=C/C(c2cc(Cl)c(Cl)c(Cl)c2)C(F)(F)F)cc1)C1CC1` (centres unmarked) [CC50, (E)-N′-(4-(4,4,4-Trifluoro-3-(3,4,5-trichlorophenyl)but-1-en-1-yl)phenyl)cyclopropanecarbohydrazide], the pest or weed control at 50 µg/cm2 in the assay on BAW (Spodoptera exigua) and in the assay with CEW (Helicoverpa zea) was 50 to 100% throughout.
In the case of `O=C(CC(F)(F)F)NNc1ccc(/C=C/C(c2cc(Cl)c(Cl)c(Cl)c2)C(F)(F)F)cc1` (centres unmarked) [CC51], the pest or weed control at 50 µg/cm2 in the assay with BAW (Spodoptera exigua) and in the assay with CEW (Helicoverpa zea) was 50 to 100% in each case.
In the case of `O=C(CC(F)(F)F)NCc1ccc(/C=C\C(c2cc(Cl)c(Cl)c(Cl)c2)C(F)(F)F)cc1` (centres unmarked) [CC54, (Z)-3,3,3-Trifluoro-N-(4-(4,4,4-trifluoro-3-(3,4,5-trichlorophenyl)but-1-en-1-yl)benzyl)propanamide], the pest or weed control at 50 µg/cm2 in the assay on BAW (Spodoptera exigua) and with CEW (Helicoverpa zea) was 50 to 100% each time.
Turning to `FC(F)(F)C(/C=C/c1ccc(-n2cncn2)cc1)c1cc(Cl)cc(Cl)c1` (centres unmarked) [DC1, (E)-1-(4-(3-(3,5-Dichlorophenyl)-4,4,4-trifluorobut-1-en-1-yl)phenyl)-1H-1,2,4-triazole], the pest or weed control at 50 µg/cm2 with BAW (Spodoptera exigua) and in the assay with CEW (Helicoverpa zea) was 50 to 100% throughout.
On to `FC(F)(F)c1cc(C(/C=C/c2ccc(-n3cncn3)cc2)C(F)(F)F)cc(C(F)(F)F)c1` (centres unmarked) [DC16], for which the pest or weed control at 50 µg/cm2 with BAW (Spodoptera exigua) and with CEW (Helicoverpa zea) was 50 to 100% throughout.
For `N#Cc1cc(/C=C/C(c2cc(Cl)cc(C(F)(F)F)c2)C(F)(F)F)ccc1-n1cncn1` (centres unmarked) [DC33], the pest or weed control at 50 µg/cm2 in the assay on BAW (Spodoptera exigua) and in the assay on CEW (Helicoverpa zea) was 50 to 100% in each case.
In the case of `N#Cc1cc(/C=C/C(c2cc(Cl)cc(Cl)c2)C(F)(F)F)ccc1-n1cnc([N+](=O)[O-])n1` (centres unmarked) [DC37], the pest or weed control at 50 µg/cm2 in the assay with BAW (Spodoptera exigua) and in the assay with CEW (Helicoverpa zea) was 50 to 100% throughout.
For the molecule `N#Cc1cc(/C=C/C(c2cc(Cl)cc(Cl)c2)C(F)(F)F)ccc1-n1cnc(N)n1` (centres unmarked) [DC38], the pest or weed control at 50 µg/cm2 with BAW (Spodoptera exigua) and with CEW (Helicoverpa zea) was 50 to 100% each time.
`CC(=O)Nc1ncn(-c2ccc(/C=C/C(c3cc(Cl)cc(Cl)c3)C(F)(F)F)cc2C#N)n1` (centres unmarked) [DC39]: the pest or weed control at 50 µg/cm2 in the assay on BAW (Spodoptera exigua) and in the assay with CEW (Helicoverpa zea) was 50 to 100% throughout.
Regarding `N#Cc1cc(/C=C/C(c2cc(Cl)c(Cl)c(Cl)c2)C(F)(F)F)ccc1-n1cnc([N+](=O)[O-])n1` (centres unmarked) [DC40, (E)-2-(3-Nitro-1H-1,2,4-triazol-1-yl)-5-(4,4,4-trifluoro-3-(3,4,5-trichlorophenyl)but-1-en-1-yl)benzonitrile], the pest or weed control at 50 µg/cm2 with BAW (Spodoptera exigua) and in the assay with CEW (Helicoverpa zea) was 50 to 100% in each case.
In the case of `N#Cc1cc(/C=C/C(c2cc(Cl)c(Cl)c(Cl)c2)C(F)(F)F)ccc1-n1cnc(N)n1` (centres unmarked) [DC41, (E)-2-(3-Amino-1H-1,2,4-triazol-1-yl)-5-(4,4,4-trifluoro-3-(3,4,5-trichlorophenyl)but-1-en-1-yl)benzonitrile], the pest or weed control at 50 µg/cm2 with BAW (Spodoptera exigua) and with CEW (Helicoverpa zea) was 50 to 100% in each case.
As for `N#Cc1cc(/C=C/C(c2cc(Cl)c(Cl)c(Cl)c2)C(F)(F)F)ccc1-n1cnc(N(C(=O)C2CC2)C(=O)C2CC2)n1` (centres unmarked) [DC42, (E)-N-(1-(2-Cyano-4-(4,4,4-trifluoro-3-(3,4,5-trichlorophenyl)but-1-en-1-yl)phenyl)-1H-1,2,4-triazol-3-yl)-N-(cyclopropanecarbonyl)cyclopropanecarboxamide], the pest or weed control at 50 µg/cm2 in the assay with BAW (Spodoptera exigua) and in the assay on CEW (Helicoverpa zea) was 50 to 100% in each case.
As for `N#Cc1cc(/C=C/C(c2cc(Cl)c(Cl)c(Cl)c2)C(F)(F)F)ccc1-n1cnc(NC(=O)C2CC2)n1` (centres unmarked) [DC43, (E)-N-(1-(2-Cyano-4-(4,4,4-trifluoro-3-(3,4,5-trichlorophenyl)but-1-en-1-yl)phenyl)-1H-1,2,4-triazol-3-yl)cyclopropanecarboxamide], the pest or weed control at 50 µg/cm2 in the assay with BAW (Spodoptera exigua) and in the assay on CEW (Helicoverpa zea) was 50 to 100% in each case.
Turning to `Cc1cc(/C=C/C(c2cc(Cl)cc(Cl)c2)C(F)(F)F)cc(C#N)c1-n1cncn1` (centres unmarked) [DC44], the pest or weed control at 50 µg/cm2 in the assay on BAW (Spodoptera exigua) and in the assay on CEW (Helicoverpa zea) was 50 to 100% each time.
`Cc1cc(/C=C/C(c2cc(Cl)c(Cl)c(Cl)c2)C(F)(F)F)cc(C#N)c1-n1cncn1` (centres unmarked) [DC45]: the pest or weed control at 50 µg/cm2 in the assay on BAW (Spodoptera exigua) and in the assay with CEW (Helicoverpa zea) was 50 to 100% each time.
Regarding `N#Cc1cc(/C=C\C(c2cc(Cl)c(F)c(Cl)c2)C(F)(F)F)ccc1-n1cncn1` (centres unmarked) [DC46], the pest or weed control at 50 µg/cm2 in the assay with BAW (Spodoptera exigua) and in the assay with CEW (Helicoverpa zea) was 50 to 100% each time.
For `FC(F)(F)C(/C=C/c1ccc(-n2cncn2)c(Br)c1)c1cc(Cl)cc(Cl)c1` (centres unmarked) [DC47], the pest or weed control at 50 µg/cm2 with BAW (Spodoptera exigua) and with CEW (Helicoverpa zea) was 50 to 100% throughout.
